Reference: ChEMBL document CHEMBL1201862, “PubChem BioAssay data set” (2004)
Active and inactive are the calls of the source.

Tests used:
[1] = target: T1, Sphingosine 1-phosphate receptor 4 (Homo sapiens, UniProt O95977); assay: Fluorescence dose response cell-based high throughput screening assay for agonists of the Sphingosine 1-Phosphate Receptor 4 (S1P4). [Related pubchem assays: 1509 (Primary screen.), 1523 (Confirmation screen in triplicates.)]; assay type: functional
T1 sequence (O95977 whole entry): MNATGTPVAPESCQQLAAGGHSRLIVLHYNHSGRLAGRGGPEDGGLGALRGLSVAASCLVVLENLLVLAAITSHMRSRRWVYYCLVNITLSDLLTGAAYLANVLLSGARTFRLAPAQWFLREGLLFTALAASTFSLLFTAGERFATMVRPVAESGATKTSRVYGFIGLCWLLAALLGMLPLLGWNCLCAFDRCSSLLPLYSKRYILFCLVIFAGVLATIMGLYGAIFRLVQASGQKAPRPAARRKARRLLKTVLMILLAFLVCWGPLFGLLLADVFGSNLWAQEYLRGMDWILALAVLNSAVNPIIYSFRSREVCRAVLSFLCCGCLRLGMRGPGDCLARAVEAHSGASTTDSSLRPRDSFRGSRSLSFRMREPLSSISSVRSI

[2] = target: Sphingosine 1-phosphate receptor 1 (Homo sapiens, UniProt P21453); assay: Fluorescence-based counterscreen assay for S1P4 agonists: Cell-based dose response high throughput screening assay to identify agonists of the Sphingosine 1-Phosphate Receptor 1 (S1P1). [Related pubchem assays (depositor defined):AID1509, AID1523, AID1801, AID463107, AID463118, AID463119, AID463122, AID463123, AID463129, AID463225, AID504400, AID504460]; assay type: functional
[3] = luciferase reporter signal reduction – luminescence, H4-C neuroglioblastoma cells, dose response (AID 2458); assay type: functional, cell-based;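 further: H4 neuroglioblastoma cells stably carrying a luciferase reporter gene fusion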
[4] = Luminescence Cell-Based Dose Response HTS to Identify Inhibitors of Luciferase Translation or Activity in H4-C Neuroglioblastoma Cells. [Related pubchem assays: 1813 (Primary HTS), 1827 (Project Summary)]; assay type: functional
cells = assay type: functional, cell-based
[5] = Luminescence Cell-Based Dose Confirmation HTS to Identify Inhibitors of 5'UTR Stem-Loop Driven Alpha-Synuclein mRNA Translation in H4 Neuroglioblastoma Cells. [Related pubchem assays: 1827 (Project Summary), 1813 (Primary HTS)]; assay type: functional
[6] = DRD fibroblast viability loss – cell-based, non-viral oncogenic, luminescence, dose response (AID 1934); assay type: functional; conditions: Homo sapiens
[7] = Luminescence Cell-Based Dose HTS Response to Identify Inhibitors of 5'UTR Stem-Loop Driven Prion Protein mRNA Translation in H4-C Neuroglioblastoma Cells. [Related pubchem assays (depositor defined):AID1814, AID1827]; assay type: functional
[8] = Luminescence Cell-Based Dose Response HTS to Identify Inhibitors of 5'UTR Stem-Loop Driven Prion Protein mRNA Translation in H4 Neuroglioblastoma Cells. [Related pubchem assays: 1827 (Project Summary), 1813 (Primary HTS)]; assay type: functional
BJ [9] = assay: BJ-TERT-LT-ST fibroblast viability loss – cell-based, RAS-independent, luminescence, dose response (AID 1935); assay type: functional; conditions: Homo sapiens;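 further: BJ fibroblasts immortalized with TERT plus LT and ST oncogenes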
[10] = luciferase reporter signal suppression in cells – H4 neuroglioma cells, luminescence, dose response (AID 1990); assay type: functional, cell-based
[11] = alpha-synuclein stem-loop translation blockers – luminescence, H4 neuroglioblastoma cells, dose confirmation, confirmation (AID 2454); assay type: functional, cell-based;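 further: H4 neuroglioblastoma cells carrying an alpha-synuclein 5'UTR luciferase reporter; potency for inhibition of the luciferase signal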
BJ [12] = assay: cells; assay type: functional, cell-based; conditions: Homo sapiens
[13] = Luminescence Cell-Based Dose Response HTS to Identify Activators of Luciferase Translation or Activity in H4-C Neuroglioblastoma Cells. [Related pubchem assays: 1829 (Project Summary), 1814 (Primary HTS)]; assay type: functional
[14] = alpha-synuclein stem-loop luciferase translation blockers – H4 neuroglioma cells, luminescence, confirmation (AID 1988); assay type: functional, cell-based
[15] = Luminescence Cell-Based Dose Retest to Confirm Activators of 5'UTR Stem-Loop Driven Alpha-Synuclein mRNA Translation in H4 Neuroglioblastoma Cells. [Related pubchem assays (depositor defined):AID1813, AID1829]; assay type: functional
[16] = Luminescence Cell-Based Dose Response HTS to Identify Activators of 5'UTR Stem-Loop Driven Prion Protein mRNA Translation in H4-C Neuroglioblastoma Cells. [Related pubchem assays: 1829 (Project Summary), 1814 (Primary HTS)]; assay type: functional
BJ [17] = assay: BJ-TERT fibroblast viability loss – cell-based, RAS-independent, luminescence, dose response (AID 1933); assay type: functional; conditions: Homo sapiens
[18] = target: Peroxisome proliferator-activated receptor gamma/Nuclear receptor coactivator 3 (Homo sapiens, UniProt P37231); assay: (§1) TR-FRET dose response biochemical High Throughput Screening assay for agonists of the steroid receptor coactivator 3 (SRC-3) recruitment by the peroxisome proliferator-activated receptor gamma (PPAR gamma): non-selective agonists. [Related pubchem assays: 1301 (Confirmation screen.), 1048 (Primary screen.)]; assay type: functional
[19] = target: Peroxisome proliferator-activated receptor gamma/Nuclear receptor coactivator 1 (Homo sapiens, UniProt P37231); assay: as §1, with “1 (SRC-1)” for “3 (SRC-3)”, “assays (depositor defined):AID1300, AID1808, AID504735, AID631]” for “assays: 1301 (Confirmation screen.), 1048 (Primary screen.)]”; assay type: protein assay
[20] = target: Peroxisome proliferator-activated receptor gamma/Nuclear receptor coactivator 2 (Homo sapiens, UniProt P37231); assay: TR-FRET dose response biochemical High Throughput Screening assay for agonists of the steroid receptor coactivator 2 (SRC-2) recruitment by the peroxisome proliferator-activated receptor gamma (PPAR gamma): non-selective agonists. [Related pubchem assays: 1297, 1032 ]; assay type: functional
[21] = target: T2, Delta-type opioid receptor (Homo sapiens, UniProt P41143); assay: SAR Analysis of Agonists of the DOR Receptor using an Image-Based Assay - Set 3. [Related pubchem assays (depositor defined):AID1777, AID1786]; assay type: functional
[22] = target: T3, Kappa-type opioid receptor (Homo sapiens, UniProt P41145); assay: kappa opioid receptor activation by imaging – image-based, set 3, SAR follow-up (AID 488833); assay type: functional
Mu-type opioid receptor [23] = target: T4, Mu-type opioid receptor (Homo sapiens, UniProt P35372); assay: SAR Analysis of Agonists of the MOR Receptor using an Image-Based Assay - Set 3. [Related pubchem assays (depositor defined):AID1777, AID1785, AID1786, AID1966, AID2133, AID2136, AID2284, AID2285, AID2352]; assay type: functional
[24] = target: T3, Kappa-type opioid receptor; assay: SAR analysis of small molecule agonists of the kappa opioid receptor via a luminescent beta-arrestin assay - Set 3. [Related pubchem assays (depositor defined):AID1777, AID1785, AID1786, AID1966, AID2133, AID2136, AID2284, AID2500]; assay type: functional
[25] = target: T3, Kappa-type opioid receptor; assay: SAR analysis of small molecule agonists of the kappa opioid receptor via a luminescent beta-arrestin assay - Set 2. [Related pubchem assays (depositor defined):AID1777, AID1785, AID1786, AID1966, AID2133, AID2136, AID2284, AID449737]; assay type: functional
[26] = target: T3, Kappa-type opioid receptor; assay: SAR analysis of Antagonists of the Kappa Opioid Receptor (KOR) using an Image-Based Assay - Set 2. [Related pubchem assays (depositor defined):AID1777, AID1785, AID1786, AID1966, AID2133, AID2136, AID2284, AID2285, AID2348]; assay type: functional
[27] = target: T3, Kappa-type opioid receptor; assay: kappa opioid receptor blockade potency – cell-based, luminescence, set 2, SAR follow-up (AID 2495); assay type: functional
Mu-type opioid receptor [28] = target: T4, Mu-type opioid receptor; assay: SAR Analysis of Antagonists of the MOR Receptor using an Image-Based Assay - Set 2. [Related pubchem assays (depositor defined):AID1777, AID1785, AID1786, AID1966, AID2133, AID2136, AID2284, AID2285, AID2420]; assay type: functional
[29] = target: T2, Delta-type opioid receptor; assay: SAR Analysis of Agonists of the DOR Receptor using an Image-Based Assay - Set 2. [Related pubchem assays (depositor defined):AID1777, AID1785, AID1786, AID1966, AID2133, AID2136, AID2284, AID2285, AID2370]; assay type: functional
[30] = target: T3, Kappa-type opioid receptor; assay: SAR analysis of Agonists of the Kappa Opioid Receptor (KOR) using an Image-Based Assay - Set 2. [Related pubchem assays (depositor defined):AID1777, AID1786, AID1966, AID2133, AID2136, AID2284, AID2285, AID2359]; assay type: functional
Mu-type opioid receptor [31] = target: T4, Mu-type opioid receptor; assay: SAR Analysis of Agonists of the MOR Receptor using an Image-Based Assay - Set 2. [Related pubchem assays (depositor defined):AID1777, AID1785, AID1786, AID1966, AID2133, AID2136, AID2284, AID2285, AID2352]; assay type: functional
[32] = target: T2, Delta-type opioid receptor; assay: SAR Analysis of Antagonists of the DOR Receptor using an Image-Based Assay - Set 2. [Related pubchem assays (depositor defined):AID1777, AID1785, AID1786, AID1966, AID2133, AID2136, AID2284, AID2285, AID2357]; assay type: functional
[33] = target: G-protein coupled receptor 55 (Homo sapiens, UniProt Q9Y2T6); assay: SAR Analysis of Selective Antagonists of GPR55 using an Image-Based Assay - Set 4. [Related pubchem assays (depositor defined):AID2013, AID2026]; assay type: functional;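 further: antagonism of response to 5 µM lysophosphatidylinositol agonist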
Cannabinoid receptor 1 [34] = target: T5, Cannabinoid receptor 1 (Homo sapiens, UniProt P21554); assay: SAR analysis of antagonists of the Cannabinoid Receptor 1 using an Image-Based Assay - Set 4. [Related pubchem assays (depositor defined):AID2013, AID2026]; assay type: functional
[35] = target: T6, G-protein coupled receptor 35 (Homo sapiens, UniProt Q9HC97); assay: SAR analysis of Antagonists of the GPR35 Receptor using an Image-Based Assay - Set 6. [Related pubchem assays (depositor defined):AID2013, AID2026]; assay type: functional
Cannabinoid receptor 2 [36] = target: T7, Cannabinoid receptor 2 (Homo sapiens, UniProt P34972); assay: SAR analysis of agonists of the Cannabinoid Receptor 2 using an Image-Based Assay - Set 3. [Related pubchem assays (depositor defined):AID2013, AID2026]; assay type: functional
Cannabinoid receptor 2 [37] = target: T7, Cannabinoid receptor 2; assay: SAR analysis of antagonists of the Cannabinoid Receptor 2 using an Image-Based Assay - Set 3. [Related pubchem assays (depositor defined):AID2013, AID2026]; assay type: functional
Cannabinoid receptor 1 [38] = target: T5, Cannabinoid receptor 1; assay: SAR analysis of agonists of the Cannabinoid Receptor 1 using an Image-Based Assay - Set 4. [Related pubchem assays (depositor defined):AID2013, AID2026]; assay type: functional
[39] = target: T6, G-protein coupled receptor 35; assay: SAR analysis of Agonists of the GPR35 Receptor using an Image-Based Assay - Set 4. [Related pubchem assays (depositor defined):AID2013, AID2026]; assay type: functional
[40] = antiviral efficacy against SV40, host toxicity – BSC cells, set 3, confirmation (AID 485276); assay type: functional, cell-based

T2 sequence (P41143 whole entry): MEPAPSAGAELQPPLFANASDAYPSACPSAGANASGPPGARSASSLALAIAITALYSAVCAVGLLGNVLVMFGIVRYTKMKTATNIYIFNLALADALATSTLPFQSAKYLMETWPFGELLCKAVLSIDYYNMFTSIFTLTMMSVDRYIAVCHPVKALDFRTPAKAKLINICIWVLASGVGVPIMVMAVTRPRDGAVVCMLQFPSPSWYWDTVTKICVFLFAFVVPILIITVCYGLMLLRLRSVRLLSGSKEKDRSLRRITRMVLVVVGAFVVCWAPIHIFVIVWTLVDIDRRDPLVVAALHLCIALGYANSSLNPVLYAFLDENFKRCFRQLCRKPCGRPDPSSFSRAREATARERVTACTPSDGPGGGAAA
T3 sequence (P41145 whole entry): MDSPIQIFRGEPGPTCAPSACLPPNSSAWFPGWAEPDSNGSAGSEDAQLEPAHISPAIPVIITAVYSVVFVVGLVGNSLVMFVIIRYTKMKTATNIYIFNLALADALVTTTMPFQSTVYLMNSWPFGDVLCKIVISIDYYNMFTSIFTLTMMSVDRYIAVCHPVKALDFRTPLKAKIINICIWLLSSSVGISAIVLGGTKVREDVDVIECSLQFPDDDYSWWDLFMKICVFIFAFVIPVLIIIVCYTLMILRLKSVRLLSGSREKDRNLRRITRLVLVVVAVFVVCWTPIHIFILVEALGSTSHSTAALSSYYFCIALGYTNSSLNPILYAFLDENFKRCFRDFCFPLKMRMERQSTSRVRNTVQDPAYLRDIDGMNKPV
T4 sequence (P35372 whole entry): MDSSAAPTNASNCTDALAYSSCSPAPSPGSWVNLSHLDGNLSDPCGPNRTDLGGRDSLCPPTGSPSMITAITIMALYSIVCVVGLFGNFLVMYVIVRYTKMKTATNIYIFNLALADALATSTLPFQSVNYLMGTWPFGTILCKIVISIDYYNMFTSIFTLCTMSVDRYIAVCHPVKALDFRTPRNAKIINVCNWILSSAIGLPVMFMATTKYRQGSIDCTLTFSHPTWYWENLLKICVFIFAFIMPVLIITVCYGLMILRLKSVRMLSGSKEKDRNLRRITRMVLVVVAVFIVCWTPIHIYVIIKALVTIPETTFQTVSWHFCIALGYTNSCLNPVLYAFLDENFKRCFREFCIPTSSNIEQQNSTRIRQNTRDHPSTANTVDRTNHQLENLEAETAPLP
T5 sequence (P21554 whole entry): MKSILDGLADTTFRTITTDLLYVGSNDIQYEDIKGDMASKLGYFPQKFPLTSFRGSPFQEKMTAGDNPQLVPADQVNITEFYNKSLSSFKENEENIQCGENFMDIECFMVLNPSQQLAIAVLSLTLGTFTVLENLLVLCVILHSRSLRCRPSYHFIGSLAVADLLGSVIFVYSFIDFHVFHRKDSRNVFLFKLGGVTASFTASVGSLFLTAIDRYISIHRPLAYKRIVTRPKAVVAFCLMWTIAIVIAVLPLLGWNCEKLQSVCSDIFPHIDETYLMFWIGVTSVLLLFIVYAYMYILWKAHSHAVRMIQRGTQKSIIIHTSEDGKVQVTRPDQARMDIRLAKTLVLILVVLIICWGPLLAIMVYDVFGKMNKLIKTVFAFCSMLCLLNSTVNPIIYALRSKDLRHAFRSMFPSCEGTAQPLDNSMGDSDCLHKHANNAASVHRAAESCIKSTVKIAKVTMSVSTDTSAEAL
T7 sequence (P34972 whole entry): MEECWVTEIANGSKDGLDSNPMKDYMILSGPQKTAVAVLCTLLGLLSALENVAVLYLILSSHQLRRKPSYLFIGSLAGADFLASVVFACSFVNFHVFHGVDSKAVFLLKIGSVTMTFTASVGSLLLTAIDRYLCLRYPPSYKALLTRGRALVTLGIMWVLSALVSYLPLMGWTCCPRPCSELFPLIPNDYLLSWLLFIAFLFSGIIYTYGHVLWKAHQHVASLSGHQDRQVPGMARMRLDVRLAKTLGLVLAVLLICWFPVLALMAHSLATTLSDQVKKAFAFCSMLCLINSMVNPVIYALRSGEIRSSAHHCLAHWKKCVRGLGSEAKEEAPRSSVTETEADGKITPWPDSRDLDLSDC
T6 sequence (Q9HC97 whole entry): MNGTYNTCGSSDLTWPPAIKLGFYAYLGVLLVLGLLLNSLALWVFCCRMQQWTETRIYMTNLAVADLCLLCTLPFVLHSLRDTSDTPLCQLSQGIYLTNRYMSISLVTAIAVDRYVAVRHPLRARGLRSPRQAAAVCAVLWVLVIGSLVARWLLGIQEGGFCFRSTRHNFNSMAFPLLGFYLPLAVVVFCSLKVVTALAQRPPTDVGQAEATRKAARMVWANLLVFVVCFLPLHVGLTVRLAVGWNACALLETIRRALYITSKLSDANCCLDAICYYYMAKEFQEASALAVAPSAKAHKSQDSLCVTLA
G-protein coupled receptor 55, sequence (Q9Y2T6 whole entry): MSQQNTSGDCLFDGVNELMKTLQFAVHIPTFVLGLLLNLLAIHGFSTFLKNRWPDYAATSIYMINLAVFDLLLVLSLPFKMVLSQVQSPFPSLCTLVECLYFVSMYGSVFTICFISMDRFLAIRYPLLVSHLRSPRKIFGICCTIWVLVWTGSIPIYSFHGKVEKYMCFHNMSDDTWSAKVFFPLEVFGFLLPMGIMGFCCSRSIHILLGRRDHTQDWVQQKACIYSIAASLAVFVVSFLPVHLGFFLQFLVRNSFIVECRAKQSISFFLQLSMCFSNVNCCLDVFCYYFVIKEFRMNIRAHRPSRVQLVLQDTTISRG
Peroxisome proliferator-activated receptor gamma/Nuclear receptor coactivator 2, sequence (P37231 whole entry): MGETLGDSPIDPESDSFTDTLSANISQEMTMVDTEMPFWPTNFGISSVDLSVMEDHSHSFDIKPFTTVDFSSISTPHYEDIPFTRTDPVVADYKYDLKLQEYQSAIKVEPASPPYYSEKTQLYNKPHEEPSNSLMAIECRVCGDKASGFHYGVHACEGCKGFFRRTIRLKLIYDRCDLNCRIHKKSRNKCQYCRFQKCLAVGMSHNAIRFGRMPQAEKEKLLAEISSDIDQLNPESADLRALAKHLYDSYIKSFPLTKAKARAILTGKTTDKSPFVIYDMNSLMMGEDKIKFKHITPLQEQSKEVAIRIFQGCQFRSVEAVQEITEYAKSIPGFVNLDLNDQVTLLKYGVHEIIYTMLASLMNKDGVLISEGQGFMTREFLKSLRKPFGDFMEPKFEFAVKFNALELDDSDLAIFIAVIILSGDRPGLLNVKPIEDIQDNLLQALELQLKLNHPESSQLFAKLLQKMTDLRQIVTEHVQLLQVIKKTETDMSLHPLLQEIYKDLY
Peroxisome proliferator-activated receptor gamma/Nuclear receptor coactivator 2, sequence (Q15596 whole entry, further chain): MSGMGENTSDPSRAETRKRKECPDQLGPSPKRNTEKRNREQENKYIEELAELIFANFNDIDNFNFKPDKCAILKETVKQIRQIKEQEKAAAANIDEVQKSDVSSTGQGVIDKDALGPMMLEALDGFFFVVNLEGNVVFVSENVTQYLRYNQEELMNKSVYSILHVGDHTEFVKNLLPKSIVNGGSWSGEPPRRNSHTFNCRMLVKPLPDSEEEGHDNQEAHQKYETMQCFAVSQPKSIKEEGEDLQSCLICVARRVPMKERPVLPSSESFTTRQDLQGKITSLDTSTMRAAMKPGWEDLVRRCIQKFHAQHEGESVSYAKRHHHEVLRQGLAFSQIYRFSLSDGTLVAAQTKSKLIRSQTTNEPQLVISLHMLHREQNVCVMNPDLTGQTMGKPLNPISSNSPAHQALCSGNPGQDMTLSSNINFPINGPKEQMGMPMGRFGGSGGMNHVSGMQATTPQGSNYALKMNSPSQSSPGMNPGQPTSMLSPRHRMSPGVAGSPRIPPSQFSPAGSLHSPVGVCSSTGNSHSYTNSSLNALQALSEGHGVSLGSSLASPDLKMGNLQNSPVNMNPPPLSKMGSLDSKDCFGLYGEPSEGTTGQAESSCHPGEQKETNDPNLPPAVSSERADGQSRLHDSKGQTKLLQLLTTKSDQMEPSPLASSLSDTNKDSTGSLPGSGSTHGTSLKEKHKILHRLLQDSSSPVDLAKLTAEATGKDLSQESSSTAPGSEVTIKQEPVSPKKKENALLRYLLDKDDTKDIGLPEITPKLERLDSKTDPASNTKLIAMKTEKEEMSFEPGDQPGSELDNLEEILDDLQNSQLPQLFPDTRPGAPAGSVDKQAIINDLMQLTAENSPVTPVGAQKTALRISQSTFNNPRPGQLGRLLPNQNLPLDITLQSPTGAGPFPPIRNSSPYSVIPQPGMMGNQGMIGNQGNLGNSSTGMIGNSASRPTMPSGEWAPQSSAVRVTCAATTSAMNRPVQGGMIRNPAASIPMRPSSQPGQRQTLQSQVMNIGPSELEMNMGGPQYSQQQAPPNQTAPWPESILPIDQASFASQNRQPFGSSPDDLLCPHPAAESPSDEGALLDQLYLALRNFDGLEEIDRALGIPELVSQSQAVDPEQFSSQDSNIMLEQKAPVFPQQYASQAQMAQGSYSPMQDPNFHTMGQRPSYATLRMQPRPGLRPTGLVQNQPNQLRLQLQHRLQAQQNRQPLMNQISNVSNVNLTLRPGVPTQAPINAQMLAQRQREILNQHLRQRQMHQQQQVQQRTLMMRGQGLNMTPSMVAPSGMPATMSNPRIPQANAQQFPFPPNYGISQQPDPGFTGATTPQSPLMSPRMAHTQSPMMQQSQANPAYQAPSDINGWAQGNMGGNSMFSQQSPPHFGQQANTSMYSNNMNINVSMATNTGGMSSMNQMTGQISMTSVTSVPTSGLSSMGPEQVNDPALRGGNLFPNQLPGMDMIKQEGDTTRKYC
Sphingosine 1-phosphate receptor 1, sequence (P21453 whole entry, the tested form may be a part): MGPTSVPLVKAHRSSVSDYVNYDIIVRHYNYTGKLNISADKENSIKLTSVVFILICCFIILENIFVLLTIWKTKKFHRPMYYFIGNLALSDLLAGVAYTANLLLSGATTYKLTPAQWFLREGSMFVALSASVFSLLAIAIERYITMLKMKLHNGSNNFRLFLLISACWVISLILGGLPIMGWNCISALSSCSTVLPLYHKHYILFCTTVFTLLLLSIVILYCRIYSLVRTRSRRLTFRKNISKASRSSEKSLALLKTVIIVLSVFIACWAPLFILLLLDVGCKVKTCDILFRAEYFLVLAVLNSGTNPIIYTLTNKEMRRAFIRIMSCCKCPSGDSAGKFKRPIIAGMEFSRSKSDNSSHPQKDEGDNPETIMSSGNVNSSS

Cc1cccc(-n2c(=O)c(C#N)cc3c(=O)n4ccccc4nc32)c1
EC50 [1]: 4.06 µM (active)
EC50 [2]: 8.75 µM (active)

Cc1ccc(-c2cc(C(=O)N/N=C/c3c(C)nn(-c4ccccc4)c3C)[nH]n2)s1
EC50 [3]: 1.71 µM (active)
EC50 [4]: 0.806 µM (active)
EC50 (cells): 4.24 µM (active)
EC50 [5]: 1.38 µM (active)
EC50 [6]: 20 µM (inconclusive)
EC50 [7]: 1.23 µM (active)
EC50 [8]: 11.6 µM (active)
EC50 (BJ [9]): 0.396 µM (inconclusive)
EC50 [10]: 6.26 µM (inconclusive)
EC50 [11]: 6.08 µM (active)
EC50 (BJ [12]): 46.3 µM (inconclusive)
EC50 [13]: 1.16 µM (inconclusive)
EC50 [14]: < 0.1 µM (active)
EC50 [15]: 2.69 µM (inconclusive)
EC50 [16]: 0.509 µM (inconclusive)
EC50 (BJ [17]): 0.413 µM (active)

CC(C)C(OC(=O)c1cc2occc2n1C)C(=O)NCc1ccc2c(c1)OCO2 (stereo unspecified)
EC50 [18]: > 79.4 µM (not active)
EC50 [19]: > 79.4 µM (inactive)
EC50 [20]: > 79.4 µM (not active)

Fc1cccc(F)c1CSc1nnc(-c2ccccn2)n1Cc1cccs1
EC50 [21]: > 32 µM (inactive)
EC50 [22]: 20.9 µM (inactive)
EC50 (Mu-type opioid receptor [23]): > 32 µM (inactive)
EC50 [24]: 18 µM (inactive)

CCc1ccc(S(=O)(=O)NCc2ccc(C(=O)NCCc3ccccc3)cc2)cc1
EC50 [25]: > 20 µM (inactive)
IC50 [26]: > 32 µM (inactive)
IC50 [27]: > 20 µM (inactive)
IC50 (Mu-type opioid receptor [28]): > 32 µM (inactive)
EC50 [29]: > 32 µM (inactive)
EC50 [30]: > 32 µM (inactive)
EC50 (Mu-type opioid receptor [31]): > 32 µM (inactive)
IC50 [32]: > 32 µM (inactive)

N=c1c(C(=O)NCc2ccccc2)cc2c(=O)n3ccccc3nc2n1C1CCCC1
IC50 [33]: 4.1 µM (active)
IC50 (Cannabinoid receptor 1 [34]): 15.9 µM (inactive)
IC50 [35]: > 32 µM (inactive)
EC50 (Cannabinoid receptor 2 [36]): 1.31 µM (active)
IC50 (Cannabinoid receptor 2 [37]): > 32 µM (inactive)
EC50 (Cannabinoid receptor 1 [38]): > 32 µM (inactive)
EC50 [39]: > 32 µM (inactive)

CC(C)(c1ccc(O)cc1)c1ccc(O)cc1 [BISPHENOL A]
IC50 [40]: 9.3 µM (active)
